How the values were obtained:
[1] = test system: glucocorticoid-resistant neutrophilic asthma; assay: Glucocorticoid-resistant asthma model; format: in vivo, BALB/c mice; settings: CL27c 2 mg/ml aerosol
Experimental: (§1) BALF was performed to obtain leukocytes from alveolar space. The trachea was exposed and a 1.7-mm-outside-diameter polyethylene catheter was inserted. BAL was performed by washing the lungs three-times with three different 500 µl aliquots of PBS. BALF samples were centrifuged at 600 × g for 10 min at 4 °C on a histology glass slide and stained with Diff Quick (MICROPTIC, #DQ-ST). The number of leukocytes and differential counts of different population were obtained evaluating the percentage leukocyte populations over the total cell number.
(§2) Mice were anesthetized with a subcutaneous injection of ketamine and xylazine (130 mg/Kg ketamine and 8.5 mg/Kg xylazine) to maintain spontaneous breathing under anesthesia. Mice were tracheostomized, placed in a body plethysmograph and connected to a computer-controlled ventilator (Forced Pulmonary Maneuver System®, Buxco Research Systems©, Wilmington, North Carolina USA). First, an average breathing frequency of 160 breaths/min was imposed to the anesthetized animal by a pressure-controlled ventilation until a regular breathing pattern and complete expiration at each breathing cycle was obtained. Under mechanical respiration, respiratory flow and airway pressure were measured to compute dynamic compliance (Cdyn) and lung resistance (RL). To measure the TLC, pressure–volume maneuvers were performed, where lungs were inflated to a standard pressure of +30 cm H2O and then let slowly exhale until a negative pressure of −30 cm H2O was reached. To measure the FEV Fast-Flow Volume maneuvers was performed. In this maneuver, lungs were first inflated to +30 cm H2O (TLC) and, immediately, a negative pressure (−30 cm H2O) was applied in order to enforce expiration. To evaluate AHR, the same mice used in previous maneuvers (basal condition) received Metacholine, 1 mg/Kg (Acetyl-β-methylcholine chloride, A-2251, Sigma-Aldrich St.Louis, MO,USA) i.v., and 20 sec after, a new set of maneuvers were conducted to assess RL changes. Suboptimal maneuvers were rejected and for each test in every single mouse at least three acceptable maneuvers were conducted to obtain a reliable mean for all numeric parameters.
(§3) IL-5, IL-13, eotaxin, TGF-β, KC, IL-17A, and MCP-1 levels in the BALF and anti-OVA IgE levels in serum were measured by ELISA technique using commercial DuoSet kits R&D Systems according to the instructions of the manufacturer. Results were expressed in levels of cytokines per ml of […] (pg/ml) or arbitrary units (A.U.).
On day 1 BALB/c mice received systemic immunization by subcutaneous injection of 20 µg of chicken egg ovalbumin (OVA grade V, >98% pure; Sigma, St Louis, MO) in saline, emulsified in 75 µL CFA (Complete Freund’s Adjuvant; Sigma-Aldrich) (Figure 5)[52]. On days 25–28 mice were exposed to aerosolised ovalbumin (1% in saline) for 20 min per day. Mice were exposed during 30 min to aerosolized CL27c (2 mg/ml dissolved in 0.5 % tylaxopol/saline solution) or vehicle (0.5% tyloxapol/saline solution), or to systemic treatment with dexamethasone (5 mg/kg i.p. injection). Untreated control groups included mice challenged with PBS alone. On day 29, mice were sacrificed, and samples were collected for further analysis.
(§4) The left lung was removed and fixed in 4% neutral phosphate-buffered formalin (pH 7.4)[10]. The tissues were dehydrated gradually in ethanol, embedded in paraffin, cut into 4 µm sections, stained with H&E, Gomori’s trichrome and periodic acid schiff (PAS), and examined under light microscopy by a pathologist in a double blinded manner. Images of lung sections were captured with a digital camera (Optronics DEI-470) connected to a microscope (Olympus IX70) with a magnification of ×40 or ×100. Inflammation was scored according to modification of existing protocols[53] and to the histopathology criteria reported in Supplementary Table 4.

[2] = test system: OVA-induced chronic allergic asthma; assay: OVA-induced chronic allergic asthma model; format: in vivo, BALB/c mice
Experimental: as §1, §2
On day 1, BALB/c mice received systemic immunization by subcutaneous injection of 10 µg of chicken egg ovalbumin (OVA grade V, >98% pure; Sigma, St Louis, MO) diluted in 2 mg/mL Al(OH)3 followed by a booster injection at the day 14 (described in fig. 3). Nasal challenges were performed starting at the day 28, by inhalational exposure to aerosolised ovalbumin (1% ovalbumin in saline 0,9%) for 20 min per day, in alternated days during 16 days (day 28, 30, 32, 34, 36, 38, 40, 42 and 44). At the same time, mice received daily treatment from day 28 to 44 with CL27c (2 mg/ml dissolved in 0.5 % tylaxopol/saline solution, aerosolized for 30′) or vehicle (0.5% tyloxapol/saline solution, aerosolized for 30′), or dexamethasone (5 mg/kg i.p. injection). Untreated control groups included mice challenged with PBS alone. On day 45, mice were sacrificed, and samples were collected for further analysis.
as §3
as §4, with “Inflammation was scored according to modification of existing protocols[53] and to the histopathology criteria reported in Supplementary Table 4.” left out

[3] = CL27c 2 mg/ml aerosol or dexamethasone 5 mg/kg
[4] = aerosolized CL27c 2 mg/ml daily

COC(=O)c1cccc(Cn2cc(-c3cccc4c(=O)cc(N5CCOCC5)[nH]c34)nn2)c1 [CL27c]
abundance of cytokines (MCP-1, IL-17A, KC, Eotaxin, IFN-γ) [1]: could not block systemic production of these mediators | airway hyperreactivity and lung resistance ([1]; dexamethasone 5 mg/kg i.p.): without modifying either airway hyperreactivity or lung resistance | histopathology: overall score of lung damage / tissue inflammation ([1]; dexamethasone 5 mg/kg i.p.): significantly reduce the overall score of lung damage | lung compliance (Cdyn) ([1]; dexamethasone 5 mg/kg i.p.): restored normal lung compliance | number of inflammatory cells in BALF ([1]; dexamethasone 5 mg/kg i.p.): reduce the number of inflammatory cells in BALF | accumulation of inflammatory cells in peribronchial and perivascular spaces [2, 3]: significantly decreased | lung function: lung resistance (RL) and dynamic compliance (Cdyn) [2, 3]: normalize lung function | peribronchial fibrosis (fibrotic airway remodeling) [2, 3]: significantly reduced | methacholine-evoked airway hyperresponsiveness ([2]; aerosolized CL27c 2 mg/ml): not able to modify methacholine-evoked airway hyperresponsiveness | metaplasia of goblet cells and mucus production (PAS) [2, 4]: prevented OVA-induced metaplasia of goblet cells and mucus production | reduction of tissue levels of eosinophil peroxidase (EPO) [2, 4]: 55% | reduction of tissue levels of myeloperoxidase (MPO) [2, 4]: 50% | Th2 mediators IL-5, IL-13, and Eotaxin ([2]; repeated administration): lowering of Th2 mediators

— paper PMC6290777, “Inhalation of the prodrug PI3K inhibitor CL27c improves lung function in asthma and fibrosis” (Nature Communications, 2018)
